Assay: Lateralized olfactory delivery of oxytocin via cannula into the right nostril; brain distribution by mass spectrometry imaging (MSI)
Assay type: in vivo, Sprague-Dawley male rats
Conditions: for Blue Pixel Count (intensity corresponding to oxytocin): 30 mg/kg, 25 μL into right nostril, 2 hours, pixels with B-value exceeding 180
Method: Sprague-Dawley male rats (150˜250 g) n=3 per time point×2 time points were used in this study. Animals were fasted per facility protocols (free access to water). Sedation by 50 mg/kg pentobarbital or equivalent procedure and maintenance with isoflurane. Test article administration: The animal is kept supine with the head kept at an angle to minimize movement of the olfactory plane above zero degrees (to prevent gravity drainage into the olfactory cleft). In this study Oxytocin (30 mg/kg) was delivered via the canulated olfactory delivery model which is: a 0.699 mm diameter cannula with lipophilic ointment spread on the catheter which is carefully inserted into the right nostril with a minimal angle of 20° to the target of the correct meatus. The left nostril is occluded with a non-toxic quick setting compound to prevent cross contamination. During insertion the catheter is rotated gently to advance it through the tight nasal cavity. Once the catheter reaches the ethmoid turbinate it cannot be advance gently anymore (˜15 mm). 25 μL of oxytocin is slowly instilled in the olfactory region (FIGS. 23A-B). The animals were kept sedated for 2 hours. After 2 hours, the animals were humanely euthanized by cervical dislocation. Sample collection: Olfactory bulb and brain: Rats olfactory bulb and brain were collected and snap-freeze in liquid nitrogen. The tissue was stored at −80 C until analysis. Sample Preparation: Olfactory bulb and brain samples was homogenized with ice-cold phosphate buffer saline (pH 7.4) at a ratio of 4 (buffer): 1 (tissue) (v/w). An aliquot of 20 μL homogenate was spiked into 1.5 mL tube, and 100 μL of acetonitrile containing internal standard were added for protein precipitation. The mixture was vortexed, centrifuged at 14000 rpm for 5 min. 80 μL supernatant was transferred into a 96 well plate, and 240 μL of sterile deionized water was added, the mixture was vortexed and injected for LC-MS/MS analysis.
Sample analysis: Test compound in olfactory bulb, brain, and plasma samples will be analyzed by LC/MS/MS. Calibration curve was constructed in blank olfactory bulb homogenate. Using a High-throughput RapifleX MALDI-TOF/TOF mass spectrometer the samples were analyzed utilizing non-labeled detection technologies. This is important as this technique explores the regional distribution patterns of target molecule (FIG. 24). The frozen section of brain tissue was cut into 12 μm sections. Oxytocin at 200, […], 50, 20, 10, 5, 2 ng were used as standard in blank brain slide. And substrate were sprayed on the slides. The sample of the tissue section was ionized and desorbed with the substrate under the excitation of the laser beam. The released ions were identified with mass spectrometer. The detection levels were 2.68 ng/mm^2 (FIGS. 25A-D). To visualize the lateralized drug transfer through the brain the brain was sectioned into olfactory bulb, striatum and cerebrum sections (FIG. 26) and imaged with the Mass Spectrometry Imaging (MSI) system.
The images shown in FIGS. 27A-C were analyzed to estimate the relative concentration of oxytocin on each side of the brain. Image data was converted into a standard RGB color-map, with each of the red (R), green (G), and blue (B) values taking a value between 0 and 255. Pixels with B-values exceeding 180 were counted on each side of the brain, yielding the results in Table 1.

CC[C@H](C)[C@@H]1NC(=O)[C@H](Cc2ccc(O)cc2)NC(=O)[C@@H](N)CSSC[C@@H](C(=O)N2CCC[C@H]2C(=O)N[C@@H](CC(C)C)C(=O)NCC(N)=O)NC(=O)[C@H](CC(N)=O)NC(=O)[C@H](CCC(N)=O)NC1=O [oxytocin, Oxytocin]
ratio of blue pixels, targeted over untargeted half of the brain (Cerebrum, 921/638): 1.44
Blue Pixel Count (intensity corresponding to oxytocin) (Cerebrum, Left hemisphere (untargeted)): 638
Blue Pixel Count (intensity corresponding to oxytocin) (Cerebrum, Right hemisphere (targeted)): 921
ratio of blue pixels, targeted over untargeted half of the brain (Olfactory, 962/475): 2.03
Blue Pixel Count (intensity corresponding to oxytocin) (Olfactory, Left hemisphere (untargeted)): 475
Blue Pixel Count (intensity corresponding to oxytocin) (Olfactory, Right hemisphere (targeted)): 962
ratio of blue pixels, targeted over untargeted half of the brain (Striatum, 7055/4085): 1.73
Blue Pixel Count (intensity corresponding to oxytocin) (Striatum, Left hemisphere (untargeted)): 4085
Blue Pixel Count (intensity corresponding to oxytocin) (Striatum, Right hemisphere (targeted)): 7055
excess drug concentration on the targeted side of the brain (across the three studied regions (Cerebrum, Olfactory, Striatum)): 44-103%
distribution of oxytocin by MSI (FIG. 27C) (cerebrum slice): lateralization coinciding with the targeted (right) hemisphere
distribution of oxytocin by MSI (FIG. 27A) (olfactory bulb slice): preferential right side distribution
distribution of oxytocin by MSI (FIG. 27B) (striatum slice): continued preferential right side distribution

Source: patent publication US12569658B2, “Intranasal and olfactory delivery devices and methods of use” (Rocket Science Health Corp., priority 2023, dated 2026)
